Experimental data from patent US20250367170A1, “TOPICAL ANGIOTENSIN II RECEPTOR BLOCKERS (ARBS) FOR TREATING EYE CONDITIONS” (The Cleveland Clinic Foundation, priority 2022, published 2025).

Tests used:
Type in all cases: in vivo, New Zealand White rabbits
[1] = test system: rabbit corneas after 1N NaOH alkali burn injury; assay: Slit lamp stromal opacity area and intensity (ImageJ) one month after alkali burn; conditions: topical 0.2 mg/ml losartan and/or 1% prednisolone acetate six times per day
Protocol: All animal treatments and care were approved by the Institutional Animal Care and Use Committee (IACUC) at the Cleveland Clinic Foundation (Cleveland, OH, USA) and the Animal Care and Use Review Office of the Department of the Army (Fort Detrick, MD). All rabbits were treated in accordance with the tenets of the ARVO Statement for the Use of Animals in Ophthalmic and Vision Research. Sixteen 10- to 15-week-old female New Zealand White rabbits weighing 2.5 to 3.0 kg each were included in this example.
(§1) Alkali injuries were produced in one eye of rabbits with previously published methods^10 using 1N sodium hydroxide (Sigma, St. Louis, MO) in balanced salt solution (BSS, 0.64% sodium chloride, 0.075% potassium chloride, 0.048% calcium chloride dihydrate, 0.03% magnesium chloride hexahydrate, 0.39% sodium acetate trihydrate, 0.17% sodium citrate dihydrate, pH 7.5, Alcon, Ft. Worth, TX) and a 5 mm diameter circular Whatman No. 1 filter paper (Cat #1001-6508, Fisher Scientific) wetted with 100 μl of 1N NaOH solution. Following the alkali burn injury, the cornea was irrigated profusely with BSS. Each injured cornea also received one drop of ciprofloxacin (Alcon, Ft. Worth, TX, USA) ten minutes after surgery and four times a day for one week and at least 15 minutes apart from the study medications.
(§2) Worth TX), at least 5 minutes apart, or 4) 50 μl of BSS.
At one month after sodium hydroxide exposure and treatments, with the rabbits under ketamine-xylazine general anesthesia, the eyes were dilated with two drops of 1% tropicamide (Akom Co., Lake Forest, IL) for thirty minutes. The study eye in each rabbit had slit lamp photographs with standardized illumination level and angle of illumination at 20× magnification with a Topcon (Oakland, NJ, USA) SL-D7 slit lamp photography system. For each study eye, the total area of opacity was determined by outlining the opacity with the freehand selection tool using ImageJ 1.53a analysis software calibrated to mm^2. The “raw internal density” in pixels for the opacified area in each cornea was also determined using ImageJ.

[2] = test system: central corneal neovascularization (CNV); assay: Corneal angiography for central corneal neovascularization after alkali burn; conditions: topical six times per day, one month, all four vehicle corneas positive
Protocol: as §1, §2
All corneas had fluorescent angiography at the peak of dye passage in the cornea immediately after injection of 1.5 ml of 10% sodium fluorescein (McKesson, Irvine, TX) in the central ear vein with the slit lamp system and digital camera system using a “barrier filter” that only transmitted 520-530 nm, the peak of fluorescein emission, with broad illumination of the cornea, as previously described.^11

collagen type IV = assay: IHC collagen type IV intensity in anterior and posterior stroma after alkali burn; conditions: one month
Protocol: Multiplex immunohistochemistry (IHC) was performed using previously described methods^8 and primary antibodies (Table 7) confirmed by western blotting and IHC to recognize rabbit antigens or isotypic control antibodies (Thermo Fisher Scientific, Waltham, MA), and secondary fluorescent tagged antibodies (Table 7). The collagen type IV antibody (Cat. #AB769, Millipore, Temecula CA) was raised against purified human and bovine collagen type IV that had been affinity purified with human and bovine collagen type IV crosslinked to agarose and cross-absorbed by the manufacturer with human and bovine collagens type I, II, III, V and VI to eliminate cross-reactivity. This collagen type IV antibody was shown previously to bind rabbit collagen IV in IHC,^8,9 and recognizes the alpha-1/alpha-2 chains but not the alpha-3 to alpha-6 chains. The keratocan antibody is raised against peptide […]-OH (SEQ ID NO:1). This marker was used to identify keratocytes in situ. […] All corneas in each group had IHC for collagen type IV. Images from each cornea were converted to uniform 300 DPI, 875×568 pixel, files. […] The staining intensity within each box was determined with the analyze histogram function and the mean of three boxes was the intensity value in the anterior or posterior stroma for that cornea.

CC(=O)OCC(=O)[C@@]1(O)CC[C@H]2[C@@H]3CCC4=CC(=O)C=C[C@]4(C)[C@H]3[C@@H](O)C[C@@]21C [prednisolone acetate]
total corneal opacity area measured with ImageJ, vs BSS vehicle [1]: decreased
total opacity in pixels in the opacified area of cornea, vs vehicle BSS group [1]: trended towards decreased total opacity
corneas (of four) that developed central corneal neovascularization [2]: one
mean intensity units of collagen type IV in the anterior stroma vs vehicle (collagen type IV): trend towards a decrease
